Values of other authors in patent US20030073069A1, “Drug rescue by redesign of ADMET/PK properties” (priority 2001, published 2003).

System: P450
Settings: induction of a P450

**Q.** Which “No. of currently known drug interactions that involve the compound, Induction” value does the source give for `CC(C)N(CCC(C(N)=O)(c1ccccc1)c1ccccn1)C(C)C` (centres unmarked) [disopyramide] here?
**A.** 3

**Q.** With `CCC(=O)C(CC(C)N(C)C)(c1ccccc1)c1ccccc1` (centres unmarked) [methadone] as the molecule, how does the “No. of currently known drug interactions that involve the compound, Induction” value read?
**A.** 8

**Q.** With `C[C@H]1c2cccc(O)c2C(=O)C2=C(O)[C@]3(O)C(=O)C(C(N)=O)=C(O)[C@@H](N(C)C)[C@@H]3[C@@H](O)[C@@H]21` [doxycycline] as the molecule, how does the “No. of currently known drug interactions that involve the compound, Induction” value read?
**A.** 3

**Q.** With `Clc1ccc(COC(Cn2ccnc2)c2ccc(Cl)cc2Cl)c(Cl)c1` (centres unmarked) [miconazole] as the molecule, how does the “No. of currently known drug interactions that involve the compound, Induction” value read?
**A.** 2

**Q.** For `O=C(CCCN1CCC(O)(c2ccc(Cl)cc2)CC1)c1ccc(F)cc1` [haloperidol], which “No. of currently known drug interactions that involve the compound, Induction” value is on record?
**A.** 3

**Q.** Which “No. of currently known drug interactions that involve the compound, Induction” value does the source give for `CC(=O)Nc1ccc(O)cc1` [acetaminophen] here?
**A.** 4

**Q.** With `CC(=O)N1CCN(c2ccc(OCC3COC(Cn4ccnc4)(c4ccc(Cl)cc4Cl)O3)cc2)CC1` (centres unmarked) [ketoconazole] as the molecule, how does the “No. of currently known drug interactions that involve the compound, Induction” value read?
**A.** 2

**Q.** With `C[C@]12CCC(=O)C=C1CC[C@H]1[C@@H]3CC[C@](O)(C(=O)CO)[C@@]3(C)C[C@H](O)[C@@]12F` [fludrocortisone] as the molecule, how does the “No. of currently known drug interactions that involve the compound, Induction” value read?
**A.** 14

**Q.** For `CCC1(c2ccccc2)C(=O)NC(=O)NC1=O` [phenobarbital], which “No. of currently known drug interactions that involve the compound, Induction” value is on record?
**A.** 1

**Q.** For `Cc1c(O)cccc1C(=O)N[C@@H](CSc1ccccc1)[C@H](O)CN1C[C@H]2CCCC[C@H]2C[C@H]1C(=O)NC(C)(C)C` [nelfinavir], which “No. of currently known drug interactions that involve the compound, Induction” value is on record?
**A.** 2

**Q.** Which “No. of currently known drug interactions that involve the compound, Induction” value does the source give for `C[C@H]1C[C@H]2[C@@H]3CCC4=CC(=O)C=C[C@]4(C)[C@@]3(F)[C@@H](O)C[C@]2(C)[C@@]1(O)C(=O)CO` [betamethasone] here?
**A.** 15

**Q.** With `C[C@]12C=CC(=O)C=C1CC[C@H]1[C@@H]3C[C@@H](O)[C@](O)(C(=O)CO)[C@@]3(C)C[C@H](O)[C@@]12F` [triamcinolone] as the molecule, how does the “No. of currently known drug interactions that involve the compound, Induction” value read?
**A.** 10

**Q.** For `C=C[C@H]1C[N@@]2CC[C@H]1C[C@H]2[C@H](O)c1ccnc2ccc(OC)cc12` [quinine], which “No. of currently known drug interactions that involve the compound, Induction” value is on record?
**A.** 2

**Q.** Which “No. of currently known drug interactions that involve the compound, Induction” value does the source give for `C[C@]12CCC(=O)C=C1CC[C@@H]1[C@@H]2C(=O)C[C@@]2(C)[C@H]1CC[C@]2(O)C(=O)CO` [cortisone] here?
**A.** 15

**Q.** Which “No. of currently known drug interactions that involve the compound, Induction” value does the source give for `CCC(C)n1ncn(-c2ccc(N3CCN(c4ccc(OCC5COC(Cn6cncn6)(c6ccc(Cl)cc6Cl)O5)cc4)CC3)cc2)c1=O` (centres unmarked) [itraconazole] here?
**A.** 5

System: P450
Settings: not given

**Q.** With `CCC(=O)O[C@](Cc1ccccc1)(c1ccccc1)[C@H](C)CN(C)C` [propoxyphene] as the molecule, how does the “No. of currently known drug interactions that involve the compound, Inhibition” value read?
**A.** 1

**Q.** Which “No. of currently known drug interactions that involve the compound, Inhibition” value does the source give for `O=C1CN=C(c2ccccc2)c2cc(Cl)ccc2N1CC1CC1` [prazapam] here?
**A.** 2

**Q.** Which “No. of currently known drug interactions that involve the compound, Inhibition” value does the source give for `CN1C[C@H](C(=O)N[C@]2(C)O[C@@]3(O)[C@@H]4CCCN4C(=O)[C@H](Cc4ccccc4)N3C2=O)C=C2c3cccc4[nH]cc(c34)C[C@H]21` [ergotamine] here?
**A.** 7

**Q.** With `CN1C[C@H](C(=O)N[C@]2(C)O[C@@]3(O)[C@@H]4CCCN4C(=O)[C@H](Cc4ccccc4)N3C2=O)C[C@@H]2c3cccc4[nH]cc(c34)C[C@H]21` [dihydroergotamine] as the molecule, how does the “No. of currently known drug interactions that involve the compound, Inhibition” value read?
**A.** 7

Same assay, conditions: inhibition of a P450

**Q.** Which “No. of currently known drug interactions that involve the compound, Inhibition” value does the source give for `CC(C)(C)NC[C@H](O)COc1nsnc1N1CCOCC1` [timolol] here?
**A.** 1

**Q.** With `CN(C)CCCN1c2ccccc2Sc2ccc(Cl)cc21` [chlorpromazine] as the molecule, how does the “No. of currently known drug interactions that involve the compound, Inhibition” value read?
**A.** 1

**Q.** Which “No. of currently known drug interactions that involve the compound, Inhibition” value does the source give for `CC(C)COCC(CN(Cc1ccccc1)c1ccccc1)N1CCCC1` (centres unmarked) [bepridil] here?
**A.** 1

**Q.** Which “No. of currently known drug interactions that involve the compound, Inhibition” value does the source give for `COc1ccc(CCN2CCC(Nc3nc4ccccc4n3Cc3ccc(F)cc3)CC2)cc1` [astemizole] here?
**A.** 10

**Q.** With `CC(CN1c2ccccc2Sc2ccccc21)N(C)C` (centres unmarked) [promethazine] as the molecule, how does the “No. of currently known drug interactions that involve the compound, Inhibition” value read?
**A.** 1

**Q.** With `CCCCNC(=O)NS(=O)(=O)c1ccc(C)cc1` [tolbutamide] as the molecule, how does the “No. of currently known drug interactions that involve the compound, Inhibition” value read?
**A.** 1

**Q.** With `COc1ccc2c(c1)N(C[C@H](C)CN(C)C)c1ccccc1S2` [methotrimeprazine] as the molecule, how does the “No. of currently known drug interactions that involve the compound, Inhibition” value read?
**A.** 1

**Q.** For `Clc1ccc2c(c1)C(N1CCNCC1)=Nc1ccccc1O2` [amoxapine], which “No. of currently known drug interactions that involve the compound, Inhibition” value is on record?
**A.** 3

**Q.** With `CC[C@H](C)C(=O)O[C@H]1C[C@@H](C)C=C2C=C[C@H](C)[C@H](CC[C@@H]3C[C@@H](O)CC(=O)O3)[C@H]21` [lovastatin] as the molecule, how does the “No. of currently known drug interactions that involve the compound, Inhibition” value read?
**A.** 5

**Q.** With `CC(C)(C)NC(=O)[C@@H]1C[C@@H]2CCCC[C@@H]2CN1C[C@@H](O)[C@H](Cc1ccccc1)NC(=O)[C@H](CC(N)=O)NC(=O)c1ccc2ccccc2n1` [saquinavir] as the molecule, how does the “No. of currently known drug interactions that involve the compound, Inhibition” value read?
**A.** 2

**Q.** Which “No. of currently known drug interactions that involve the compound, Inhibition” value does the source give for `CC(=O)CC(c1ccc([N+](=O)[O-])cc1)c1c(O)c2ccccc2oc1=O` (centres unmarked) [acenocoumarol] here?
**A.** 1

**Q.** For `CO[C@H]1/C=C/O[C@@]2(C)Oc3c(C)c(O)c4c(O)c(c(/C=N/N5CCN(C6CCCC6)CC5)c(O)c4c3C2=O)NC(=O)/C(C)=C\C=C\[C@H](C)[C@H](O)[C@@H](C)[C@@H](O)[C@@H](C)[C@H](OC(C)=O)[C@@H]1C` [rifapentine], which “No. of currently known drug interactions that involve the compound, Inhibition” value is on record?
**A.** 2

**Q.** For `O=C(NCC1CCCCN1)c1cc(OCC(F)(F)F)ccc1OCC(F)(F)F` (centres unmarked) [flecainide], which “No. of currently known drug interactions that involve the compound, Inhibition” value is on record?
**A.** 2

**Q.** With `CN1C(C(=O)Nc2ccccn2)=C(O)c2ccccc2S1(=O)=O` [piroxicam] as the molecule, how does the “No. of currently known drug interactions that involve the compound, Inhibition” value read?
**A.** 1

**Q.** Which “No. of currently known drug interactions that involve the compound, Inhibition” value does the source give for `COc1ccc2[nH]c([S+]([O-])Cc3ncc(C)c(OC)c3C)nc2c1` (centres unmarked) [omeprazole] here?
**A.** 1

**Q.** With `OCCN1CCN(CCCN2c3ccccc3Sc3ccc(Cl)cc32)CC1` [perphenazine] as the molecule, how does the “No. of currently known drug interactions that involve the compound, Inhibition” value read?
**A.** 1

**Q.** With `CO[C@H]1/C=C/O[C@@]2(C)Oc3c(C)c(O)c4c(c3C2=O)C2=NC3(CCN(CC(C)C)CC3)NC2=C(NC(=O)/C(C)=C\C=C\[C@H](C)[C@H](O)[C@@H](C)[C@@H](O)[C@@H](C)[C@H](OC(C)=O)[C@@H]1C)C4=O` [rifabutin] as the molecule, how does the “No. of currently known drug interactions that involve the compound, Inhibition” value read?
**A.** 6

**Q.** For `COc1ccc(C(=O)Nc2ccccc2CCC2CCCCN2C)cc1` (centres unmarked) [encainide], which “No. of currently known drug interactions that involve the compound, Inhibition” value is on record?
**A.** 2

**Q.** With `OCCN1CCN(CCCN2c3ccccc3Sc3ccc(C(F)(F)F)cc32)CC1` [fluphenazine] as the molecule, how does the “No. of currently known drug interactions that involve the compound, Inhibition” value read?
**A.** 1

**Q.** For `CC[C@]1(O)C[C@@H]2CN(CCc3c([nH]c4ccccc34)[C@@](C(=O)OC)(c3cc4c(cc3OC)N(C)[C@H]3[C@@](O)(C(=O)OC)[C@H](OC(C)=O)[C@]5(CC)C=CCN6CC[C@]43[C@@H]65)C2)C1` [vinblastine], which “No. of currently known drug interactions that involve the compound, Inhibition” value is on record?
**A.** 4

**Q.** For `CN1CCN(CCCN2c3ccccc3Sc3ccc(C(F)(F)F)cc32)CC1` [trifluoperazine], which “No. of currently known drug interactions that involve the compound, Inhibition” value is on record?
**A.** 1

**Q.** With `COc1cc(N)c(Cl)cc1C(=O)NC1CCN(CCCOc2ccc(F)cc2)CC1OC` (centres unmarked) [cisapride] as the molecule, how does the “No. of currently known drug interactions that involve the compound, Inhibition” value read?
**A.** 15

**Q.** For `CC(=O)c1ccc2c(c1)N(CCCN1CCN(CCO)CC1)c1ccccc1S2` [acetophenazine], which “No. of currently known drug interactions that involve the compound, Inhibition” value is on record?
**A.** 1

**Q.** For `CN(C)CCCN1c2ccccc2Sc2ccccc21` [promazine], which “No. of currently known drug interactions that involve the compound, Inhibition” value is on record?
**A.** 1

**Q.** With `CNCCCC1c2ccccc2C=Cc2ccccc21` [protriptyline] as the molecule, how does the “No. of currently known drug interactions that involve the compound, Inhibition” value read?
**A.** 3

**Q.** For `COCc1c(C(C)C)nc(C(C)C)c(/C=C/[C@@H](O)C[C@@H](O)CC(=O)O)c1-c1ccc(F)cc1` [cerivastatin], which “No. of currently known drug interactions that involve the compound, Inhibition” value is on record?
**A.** 5

**Q.** With `CCN(CC)CCCC(C)Nc1ccnc2cc(Cl)ccc12` (centres unmarked) [chloroquine] as the molecule, how does the “No. of currently known drug interactions that involve the compound, Inhibition” value read?
**A.** 1

**Q.** With `CC[C@H](C)C(=O)O[C@H]1C[C@H](O)C=C2C=C[C@H](C)[C@H](CC[C@@H](O)C[C@@H](O)CC(=O)O)[C@H]21` [pravastatin] as the molecule, how does the “No. of currently known drug interactions that involve the compound, Inhibition” value read?
**A.** 1

**Q.** With `CCCC(CCC)C(=O)O` [valproic acid] as the molecule, how does the “No. of currently known drug interactions that involve the compound, Inhibition” value read?
**A.** 1

**Q.** Which “No. of currently known drug interactions that involve the compound, Inhibition” value does the source give for `CCC(c1ccccc1)c1c(O)c2ccccc2oc1=O` (centres unmarked) [phenprocoumon] here?
**A.** 1

**Q.** For `CC[C@]1(O)C[C@H]2CN(CCc3c([nH]c4ccccc34)[C@@](C(=O)OC)(c3cc4c(cc3OC)N(C=O)[C@H]3[C@@](O)(C(=O)OC)[C@H](OC(C)=O)[C@]5(CC)C=CCN6CC[C@]43[C@@H]65)C2)C1` [vincristine], which “No. of currently known drug interactions that involve the compound, Inhibition” value is on record?
**A.** 4

**Q.** For `CN1CCCCC1CCN1c2ccccc2Sc2ccc([S+](C)[O-])cc21` (centres unmarked) [mesoridazine], which “No. of currently known drug interactions that involve the compound, Inhibition” value is on record?
**A.** 1

**Q.** For `O=c1[nH]c2ccccc2n1C1CCN(CCCC(c2ccc(F)cc2)c2ccc(F)cc2)CC1` [pimozide], which “No. of currently known drug interactions that involve the compound, Inhibition” value is on record?
**A.** 3

**Q.** For `CCC(=O)c1ccc2c(c1)N(CC(C)N(C)C)c1ccccc1S2` (centres unmarked) [propiomazine], which “No. of currently known drug interactions that involve the compound, Inhibition” value is on record?
**A.** 1

**Q.** For `CN(C)CCCN1c2ccccc2Sc2ccc(C(F)(F)F)cc21` [triflupromazine], which “No. of currently known drug interactions that involve the compound, Inhibition” value is on record?
**A.** 1

**Q.** With `CCSc1ccc2c(c1)N(CCCN1CCN(C)CC1)c1ccccc1S2` [thiethylperazine] as the molecule, how does the “No. of currently known drug interactions that involve the compound, Inhibition” value read?
**A.** 1

**Q.** For `CC(C)n1c(/C=C/C(O)CC(O)CC(=O)O)c(-c2ccc(F)cc2)c2ccccc21` (centres unmarked) [fluvastatin], which “No. of currently known drug interactions that involve the compound, Inhibition” value is on record?
**A.** 1
